According to patent EP0133934A2, “Pharmacologically active 1,3,4-thiadiazol-(3,2-a)-thieno-(2,3-d)-pyrimidin-5-(H)one derivatives” (NIKEPHARMA S.r.l., priority 1983, dated 1985):

What was measured:
gastric ulceration = type: in vivo, rat; conditions: os, 400 mg/kg
Procedure: To rats fasted for 18 hours, with water ad libitum, were administered the compounds under test at "0" time and after 2 hours. Control rats were treated with established anti-inflammatory agents.
6 Hours after the beginning of the test, the animals were killed by ether inhalation.
Gastric ulceration was assessed on the ground of values ranging from 0 to 4: • 0 = no ulceration; • 1 = slight iperhaemia and/or a few ulcers; • 2 = severe iperhaemia and many punctiform ulcers; • 3 = severe submucosal hemorrage, one large ulcer and many punctiform ulcers; • 4 severe submucosal hemorrage and many large ulcers.
The ulcerogenic index was measured by the following formula (Lwoff. J.M., J. Pharmacol., 2, 81, 1971): [formula]

[1] = test system: Writhing test induced by phenyl-benzoquinone; assay: Phenylbenzoquinone writhing test in the rat; type: in vivo
Procedure: (§1) The activity tests were carried out on male Spra gue-Dawley rats weighing 200+20 g and on male Swiss mice weighing 26+3 g.
(§2) The test compounds were administered orally by means of gastroesophageal tube, in the form of a suspen sion in a 10 ml/kg mucilage of 5% gum arabic; and intraperitoneally in the form of an aqueous suspen sion added with a few drops of Tween 80, in the con stant volume of 10 ml/kg.

acetic acid peritonitis = assay: Anti-exudative activity: acetic acid peritonitis in the rat; type: in vivo; conditions: for EXUDATE VOLUME ml ± E.S.: controls 2.58 ± 0.18
Procedure: The test was carried out according to the procedure described by Arrigoni-Martelli (Boll.Chim. Far. 107, 29, 1968). This method is based upon the evaluation of the anti-exudative effect of a drug at the peritoneal level, following a intraperitoneal injection of 10 ml/kg of a 0.5% acetic acid solution.
The compounds under test were administered oral ly one hour before the inflammatory agent; 30 minutes after the treatment the animals were killed and the fluid from the peritoneal cavity was drawn and measured.
The test compounds were administered by oral route 1 hour before intraperitoneal injection of acetic acid (10 ml/kg of a 0.5% solution).
The anti-exudative activity was determined on the basis of the peritoneal exudate of the treated animals, in comparison with the controls.

carrageenin oedema = assay: Antiinflammatory activity: carrageenin oedema in the rat; type: in vivo; conditions: po, 4 h, os, 100 mg/kg, one hour before carrageenin, read-out: OEDEMA INHIBITION % at the fourth hour
Procedure: as §1, §2
The compounds under test and the control ones were administered orally one hour before the injection of 0.1 ml of 1% carrageenin in the right paw of the animals.
The volume of the paw was measured by means of a plethysmograph immediately before the injection and 2, 4 and 6 hours after.
The results were expressed as percentage inhibi tion of the oedema in the treated animals in comparison with the control animals, at the time of the maximum oedema development (fourth hour after the carrageenin injection).

Carrageenin pleuritis = Carrageenin pleuritis in the rat; type: in vivo; conditions: for EXUDATE VOLUME: 30 min. before carrageenin and 6 hours after, exudate at 18 hours, controls 2.76 ± 0.38
Procedure: Compound HA-34 was tested for the protective activity against the exudative pleuritis reaction induced by carrageenin. HA-34 was administered 30 min. before the injection of carrageenin, and 6 hours after it. The experiment was carried out on male Spra- gue-Dawley rats, anestethized with ethyl urethane, which were subjected, in their right pleural cavity, to injection of 1.5 ml of air and then 0.1 ml of a 1% carrageenin solution, in sterile normal saline, according to the procedure by Van Armann et al. (J. Pharmac. Exp. Ther., 150, 328, 1965). Indometha cin and Piroxicam were employed as the control drugs, under the same conditions. 18 Hours after the intrapleuric carrageenin injec tion, the animals were killed by means of ether inhalation, and the pleuric exudate was collected and measured.

[2] = test system: phenylbenzoquinone writhing test; assay: Phenylbenzoquinone writhing test in the mouse (ED50 and duration of effect); type: in vivo; conditions: for % INHI-BITION / N° OF WRITHES IN 10' ml ± E.S.: Table 6, oral, one hour before the test; for N° OF WRITHES IN 10' ml ± E.S.: controls 52.4 ± 1.69; for % INHIBITION / Nº OF WRITHES IN 10' ml ± E.S.: Table 7, oral 1 mg/kg; for Nº OF WRITHES IN 10' ml ± E.S.: controls 53.2 ± 1.26
Procedure: The analgesic effect was determined by the number of writhes of the abdomen recorded during 10 minutes (from 5 to 15 minutes after the phenylbenzo quinone injection).

[3] = 30 min. before phenylbenzoquinone

SMILES: CSc1nn2c(=O)c3c4c(sc3nc2s1)CCCC4 [HA 34, 2-Methyl-mercapto-6,7,8,9-tetrahydro-5H[1]-benao-thieno[2,3-d]-1,3,4-thiadiazole[3,2-a]pyrimidin-5[H]-one]
- ULCERA-TION INDEX (gastric ulceration): 0
- % ANIMALS WITH ULCERS (gastric ulceration; at 0 time and after 2 hours, killed at 6 hours): 0%
- ULCERA-TION DEGREE (gastric ulceration; scale 0 to 4): 0
- inhibition in vivo at 0.5 mg/kg ([1]; Rattus norvegicus, po, 10 min, os, 0.5 mg/kg, read-out: % INHIBI-TION): 24%
- inhibition in vivo at 5 mg/kg ([1]; Rattus norvegicus, po, 10 min, os, 5 mg/kg, read-out: % INHIBI-TION): 81%
- analgesic action ([1]; oral doses of 5 and 0.5 mg/kg, result in words): the more active of the tested compounds
- inhibition in vivo at 10 mg/kg (acetic acid peritonitis; Rattus norvegicus, po, Table 4, os, 10 mg/kg): 64%
- inhibition in vivo at 0.1 mg/kg (acetic acid peritonitis; Rattus norvegicus, po, Table 8, oral, 0.1 mg/kg): 26.7%
- inhibition in vivo at 0.5 mg/kg (acetic acid peritonitis; Rattus norvegicus, po, Table 8, oral, 0.5 mg/kg): 48%
- inhibition in vivo at 1 mg/kg (acetic acid peritonitis; Rattus norvegicus, po, Table 8, oral, 1 mg/kg): 53.2%
- inhibition in vivo at 10 mg/kg (acetic acid peritonitis; Rattus norvegicus, po, Table 8, oral, 10 mg/kg): 78.8%
- inhibition in vivo at 20 mg/kg (acetic acid peritonitis; Rattus norvegicus, po, Table 8, oral, 20 mg/kg): 94.2%
- ED50 (acetic acid peritonitis; Rattus norvegicus, oral administration 1 hour before i.p. acetic acid): 0.7 mg/kg
- PERITONEAL EXUDATE ml ± E.S. (acetic acid peritonitis; Table 4, os, 10 mg/kg, controls 2.91 ± 0.12): 0.75 ± 0.11 mL
- EXUDATE VOLUME ml ± E.S. (acetic acid peritonitis; Table 8, oral, 0.1 mg/kg, 1 hour before acetic acid): 1.89 ± 0.14 mL
- EXUDATE VOLUME ml ± E.S. (acetic acid peritonitis; Table 8, oral, 0.5 mg/kg): 1.34 ± 0.07 mL
- EXUDATE VOLUME ml ± E.S. (acetic acid peritonitis; Table 8, oral, 1 mg/kg): 1.20 ± 0.10 mL
- EXUDATE VOLUME ml ± E.S. (acetic acid peritonitis; Table 8, oral, 10 mg/kg): 0.54 ± 0.08 mL
- EXUDATE VOLUME ml ± E.S. (acetic acid peritonitis; Table 8, oral, 20 mg/kg): 0.15 ± 0.07 mL
- inhibition in vivo at 100 mg/kg (carrageenin oedema): 48.8 ± 0.91%
- % INHIBITION (Carrageenin pleuritis; 5 mg/kg): 34.8%
- EXUDATE VOLUME (Carrageenin pleuritis; 5 mg/kg): 1.80 ± 0.29
- % INHIBITION (Carrageenin pleuritis; 10 mg/kg): 63.0%
- EXUDATE VOLUME (Carrageenin pleuritis; 10 mg/kg): 1.02 ± 0.26
- inhibiting action on the pleuric exudative reaction (Carrageenin pleuritis; at the tested doses, result in words): significant inhibiting action
- ED50 ([2]; Mus musculus, 1 h, oral administration one hour before the test, read-out: ED50): 1 mg/kg
- % INHI-BITION ([2]; 0.1 mg/kg): 15.8%
- N° OF WRITHES IN 10' ml ± E.S. ([2]; 0.1 mg/kg): 44.1 ± 1.12
- % INHI-BITION ([2]; 0.5 mg/kg): 31.3%
- N° OF WRITHES IN 10' ml ± E.S. ([2]; 0.5 mg/kg): 36.0 ± 1.33
- % INHI-BITION ([2]; 1 mg/kg): 67.2%
- N° OF WRITHES IN 10' ml ± E.S. ([2]; 1 mg/kg): 17.2 ± 0.87
- % INHI-BITION ([2]; 2 mg/kg): 73.6%
- N° OF WRITHES IN 10' ml ± E.S. ([2]; 2 mg/kg): 13.8 ± 1.12
- % INHI-BITION ([2]; 5 mg/kg): 79.8%
- N° OF WRITHES IN 10' ml ± E.S. ([2]; 5 mg/kg): 10.6 ± 1.06
- % INHIBITION [2, 3]: 63.9%
- Nº OF WRITHES IN 10' ml ± E.S. [2, 3]: 19.2 ± 1.18
- % INHIBITION ([2]; 1 h before phenylbenzoquinone): 65.4%
- Nº OF WRITHES IN 10' ml ± E.S. ([2]; 1 h before phenylbenzoquinone): 18.4 ± 1.07
- % INHIBITION ([2]; 3 h before phenylbenzoquinone): 69.9%
- Nº OF WRITHES IN 10' ml ± E.S. ([2]; 3 h before phenylbenzoquinone): 16.0 ± 1.26
- % INHIBITION ([2]; 4 h before phenylbenzoquinone): 65.4%
- Nº OF WRITHES IN 10' ml ± E.S. ([2]; 4 h before phenylbenzoquinone): 18.4 ± 1.74
- % INHIBITION ([2]; 6 h before phenylbenzoquinone): 62.0%
- Nº OF WRITHES IN 10' ml ± E.S. ([2]; 6 h before phenylbenzoquinone): 20.2 ± 1.24
- % INHIBITION ([2]; 8 h before phenylbenzoquinone): 59.4%
- Nº OF WRITHES IN 10' ml ± E.S. ([2]; 8 h before phenylbenzoquinone): 21.6 ± 1.32
- % INHIBITION ([2]; 24 h before phenylbenzoquinone): 58.3%
- Nº OF WRITHES IN 10' ml ± E.S. ([2]; 24 h before phenylbenzoquinone): 22.2 ± 1.46
- % INHIBITION ([2]; 32 h before phenylbenzoquinone): 30.6%
- Nº OF WRITHES IN 10' ml ± E.S. ([2]; 32 h before phenylbenzoquinone): 36.9 ± 2.01
- duration of action ([2]; oral 1 mg/kg, result in words): longer lasting than that of Indomethacin and substantially comparable with that of Piroxicam
